Where no end group is shown, it is not given here.
Columns and labels:
[1] = molecular target: HLA A2902 (Homo sapiens, UniProt P04439, A270S/D101N/D185E/E176V/E277Q/E87Q/F33T/G231S/H175R/I121M/I218V/I322F/K168Q/L300P/L318F/M331R/P208A/P217A/Q86L/T323A/T345S/V100A/V358M); experiment: HLA class I competition binding assay using soluble HLA
[2] = molecular target: HLA A2601 (Homo sapiens, UniProt P04439, A114D/A173T/A270S/D101N/D185E/E277Q/E87N/F33Y/G231S/I121R/I218V/K168Q/L180W/L300P/L318F/P208A/P217A/Q86R/Q94H/R138Q/S129P/T187R/T323A/T345S/V100A/V358M); experiment: as above
[3] = molecular target: HLA A0101 (Homo sapiens, UniProt P04439, A114D/A174V/A182V/D101N/D185E/E176A/E190D/L180R/Q94H/R68K/S129P/T187R/V100A/V91M/W191G); experiment: as above
[4] = molecular target: HLA A3002 (Homo sapiens, UniProt P04439, D101N/D140H/D185E/E176R/F33S/G80R/H175R/K168Q/Q94H/R138E/R41S/V100E); experiment: as above
[5] = molecular target: DRB1*0701 (DR7) (Homo sapiens, UniProt P01903+P01911, A100R/A102G/A103Q/D57E/D86V/E43K/F76Y/K127E/L162R/M171V/P40G/Q125H/Q99D/R33Q/R42Y/R54Q/S133A/S66F/T210M/V115G/Y107V/Y59L/Y89S); experiment: biochemical
[6] = molecular target: DRB1*0404 (DR4w14) (Homo sapiens, UniProt P01903+P01911, A100R/A169T/F76Y/I96L/K127E/L162R/M171V/N62H/P40V/Q125Y/R42H/S133A/S149N/S66Y/V209L/W38E); experiment: biochemical
[7] = molecular target: DRB1*1302 (DR6w19) (Homo sapiens, UniProt P01903+P01911, A100E/A169T/K41T/L162R/M171V/P40S/Q125H/Q178H/Q39Y/Q99D/R42S/S66N/T262R/V115G/W38E/Y61H); experiment: biochemical
[8] = molecular target: DRB5*0101 (DR2w2beta-2) (Homo sapiens, UniProt P01903+Q30154); experiment: biochemical
[9] = molecular target: DRB4*0101 (DRw53) (Homo sapiens, UniProt P01903+P13762, G164S); experiment: biochemical
[10] = molecular target: DRB1*1101 (DR5) (Homo sapiens, UniProt P01903+P01911, A100R/A169T/A87E/I96F/K41T/L162R/M171V/P40S/Q125H/Q178H/Q39Y/Q99D/R42S/S66Y/T262R/V115G/W38E); experiment: biochemical
[11] = molecular target: DRB1*0901 (Homo sapiens, UniProt P01903+P01911, A100R/A103E/D57H/D86V/F55Y/F60I/F76Y/I96F/K127E/L162R/M171V/P40D/Q125H/Q99R/R33Q/R42F/S133A/S66N/T210M/V115G/W38K/Y107V/Y59G/Y89S); experiment: biochemical
[12] = molecular target: DRB1*0802 (DR8w2) (Homo sapiens, UniProt P01903+P01911, A100R/A103L/A169T/F76Y/H45Y/I96F/K41T/L162R/M171V/P40S/Q125H/Q178H/Q39Y/Q99D/R218S/R42G/S66Y/V115G/W38E); experiment: biochemical
[13] = molecular target: DRB1*0405 (DR4w15) (Homo sapiens, UniProt P01903+P01911, A100R/A169T/D86S/F76Y/I96L/K127E/L162R/M171V/N62H/P40V/Q125Y/R42H/S133A/S149N/S66Y/V115G/V209L/W38E); experiment: biochemical
[14] = molecular target: DRB1*0301 (DR3) (Homo sapiens, UniProt P01903+P01911, A100K/A102G/A103R/A169T/F55Y/I96L/K41T/L162R/M171V/P40S/Q125H/Q178H/Q39Y/R42S/S66N/T106N/T262R/W38E/Y61H); experiment: biochemical
[15] = molecular target: DRB1*0101 (DR1) (Homo sapiens, UniProt P01903+P01911, A100R/D57E/F55L/F60I/F76Y/I96L/L162R/M171V/P40L/Q125E/R42F/V115G/Y59C); experiment: biochemical
[16] = molecular target: DRB1*0401 (DR4w4) (Homo sapiens, UniProt P01903+P01911, A100K/A169T/F76Y/I96L/K127E/L162R/M171V/N62H/P40V/Q125Y/R42H/S133A/S149N/S66Y/V115G/V209L/W38E); experiment: biochemical
[17] = molecular target: DRB1*1501 (DR2w2beta-1) (Homo sapiens, UniProt P01903+P01911); experiment: biochemical

C[C@@H](O)[C@H](NC(=O)CN)C(=O)NCC(=O)N[C@@H](CS)C(=O)N[C@@H](CC(N)=O)C(=O)NCC(=O)N[C@@H](Cc1c[nH]c2ccccc12)C(=O)N[C@@H](Cc1ccccc1)C(=O)N[C@@H](Cc1ccc(O)cc1)C(=O)O [compound 23]
IC50 [1]: 116 nM | IC50 [2]: 3080 nM | IC50 [3]: 136 nM | IC50 [4]: 9.1 nM

CC[C@H](C)[C@H](NC(=O)[C@H](Cc1c[nH]c2ccccc12)NC(=O)[C@H](CCC(=O)O)NC(=O)[C@@H]1CCCN1)C(=O)N[C@@H](CCC(N)=O)C(=O)N[C@@H](CCCNC(=N)N)C(=O)N[C@@H](CCC(N)=O)C(=O)N[C@H](C(=O)N[C@H](C(=O)N[C@@H](CC(C)C)C(=O)N[C@@H](CCC(N)=O)C(=O)N[C@@H](Cc1c[nH]cn1)C(=O)N[C@@H](CO)C(=O)N[C@@H](Cc1ccccc1)C(=O)N[C@@H](CC(N)=O)C(=O)O)C(C)C)[C@@H](C)O [compound 90]
IC50 [5]: > 20000 nM

CC[C@H](C)[C@H](NC(=O)CNC(=O)[C@H](CCC(=O)O)NC(=O)[C@H](Cc1c[nH]cn1)NC(=O)[C@@H](NC(=O)[C@H](Cc1ccc(O)cc1)NC(=O)[C@H](Cc1ccc(O)cc1)NC(=O)[C@H](CC(C)C)NC(=O)CN)C(C)C)C(=O)N[C@@H](CCCNC(=N)N)C(=O)N[C@H](C(=O)N[C@@H](Cc1ccc(O)cc1)C(=O)N[C@@H](Cc1ccccc1)C(=O)N[C@H](C(=O)N[C@@H](CCC(N)=O)C(=O)O)C(C)C)[C@@H](C)O [compound 93]
IC50 [6]: > 20000 nM | IC50 [7]: > 20000 nM | IC50 [8]: 1000 nM | IC50 [9]: > 20000 nM

CC[C@H](C)[C@H](N)C(=O)N[C@@H](CCCNC(=N)N)C(=O)N[C@H](C(=O)N[C@@H](CC(C)C)C(=O)N[C@@H](CCC(=O)O)C(=O)N[C@@H](CC(=O)O)C(=O)N[C@@H](CC(C)C)C(=O)N[C@@H](CC(C)C)C(=O)N[C@@H](CCSC)C(=O)NCC(=O)N[C@H](C(=O)N[C@@H](CC(C)C)C(=O)NCC(=O)N[C@H](C(=O)N[C@H](C(=O)O)C(C)C)[C@@H](C)CC)[C@@H](C)O)[C@@H](C)O [compound 97]
IC50 [10]: > 20000 nM | IC50 [8]: > 20000 nM | IC50 [11]: > 20000 nM | IC50 [12]: > 20000 nM

CC[C@H](C)[C@H](NC(=O)[C@H](Cc1c[nH]cn1)NC(=O)[C@H](C)NC(=O)[C@H](Cc1ccc(O)cc1)NC(=O)[C@H](CC(C)C)NC(=O)[C@@H](NC(=O)[C@H](Cc1ccccc1)NC(=O)[C@@H]1CCCN1C(=O)[C@H](CCC(N)=O)NC(=O)[C@@H](NC(=O)[C@H](CC(C)C)NC(=O)[C@@H](NC(=O)[C@H](CCCCN)NC(=O)[C@@H](N)Cc1ccccc1)[C@@H](C)O)[C@@H](C)CC)[C@@H](C)CC)C(=O)N[C@@H](CCC(N)=O)C(=O)O [compound 98]
IC50 [10]: 6690 nM

CC[C@H](C)[C@H](N)C(=O)N[C@@H](CCC(=O)O)C(=O)N[C@@H](Cc1ccccc1)C(=O)N[C@H](C(=O)N[C@H](C(=O)N[C@@H](Cc1ccccc1)C(=O)N[C@@H](CC(C)C)C(=O)NCC(=O)N[C@@H](C)C(=O)N[C@@H](CC(C)C)C(=O)N[C@@H](CCCCN)C(=O)N[C@@H](CO)C(=O)N[C@@H](Cc1ccccc1)C(=O)N[C@@H](CC(C)C)C(=O)N[C@@H](CCCCN)C(=O)O)[C@@H](C)O)[C@@H](C)CC [compound 99]
IC50 [13]: 3650 nM | IC50 [5]: > 20000 nM | IC50 [14]: > 20000 nM | IC50 [11]: > 20000 nM | IC50 [15]: 30 nM

CC[C@H](C)[C@H](NC(=O)[C@H](C)NC(=O)[C@H](CCCCN)NC(=O)[C@@H](N)Cc1c[nH]cn1)C(=O)N[C@@H](CCC(=O)O)C(=O)N[C@@H](CC(C)C)C(=O)N[C@@H](CCC(N)=O)C(=O)N[C@@H](CCSC)C(=O)N[C@@H](C)C(=O)N[C@@H](CC(C)C)C(=O)N[C@@H](CCC(N)=O)C(=O)NCC(=O)N[C@@H](CC(C)C)C(=O)N[C@@H](C)C(=O)N[C@@H](CCC(N)=O)C(=O)O [compound 101]
IC50 [16]: 50 nM | IC50 [9]: 3 nM

CC(C)C[C@H](NC(=O)[C@H](CCC(N)=O)NC(=O)[C@H](CCC(N)=O)NC(=O)[C@@H](N)Cc1ccccc1)C(=O)N[C@@H](Cc1ccccc1)C(=O)N[C@@H](CC(C)C)C(=O)N[C@@H](CC(N)=O)C(=O)N[C@H](C(=O)N[C@@H](CC(C)C)C(=O)N[C@@H](CO)C(=O)N[C@@H](Cc1ccccc1)C(=O)N[C@H](C(=O)N[C@@H](CS)C(=O)N1CCC[C@H]1C(=O)N[C@@H](Cc1c[nH]c2ccccc12)C(=O)O)C(C)C)[C@@H](C)O [compound 105]
IC50 [12]: 9000 nM

CC[C@H](C)[C@H](N)C(=O)N[C@@H](CCCNC(=N)N)C(=O)N[C@H](C(=O)N[C@@H](CC(C)C)C(=O)N[C@@H](CCC(N)=O)C(=O)N[C@@H](CCC(=O)O)C(=O)N[C@@H](CC(C)C)C(=O)N[C@@H](CC(C)C)C(=O)N[C@@H](CCSC)C(=O)NCC(=O)N[C@@H](CO)C(=O)N[C@@H](Cc1ccccc1)C(=O)NCC(=O)N[C@H](C(=O)N[C@H](C(=O)O)C(C)C)[C@@H](C)CC)[C@@H](C)CC [compound 112]
IC50 [15]: 50 nM

CC(C)C[C@H](NC(=O)[C@H](CCC(N)=O)NC(=O)[C@H](CCC(N)=O)NC(=O)[C@H](CC(C)C)NC(=O)[C@@H](NC(=O)[C@H](CCCNC(=N)N)NC(=O)[C@@H](N)CC(C)C)[C@@H](C)O)C(=O)N[C@@H](Cc1ccccc1)C(=O)N[C@@H](CC(C)C)C(=O)N[C@@H](CO)C(=O)N[C@H](C(=O)N[C@@H](CC(C)C)C(=O)N[C@@H](CO)C(=O)N[C@@H](Cc1ccccc1)C(=O)N[C@H](C(=O)O)C(C)C)[C@@H](C)O [compound 121]
IC50 [10]: 1670 nM

DWVMAIFGVNPTVAEGF [compound 114]
IC50 [6]: 20 nM | IC50 [10]: 4960 nM | IC50 [13]: 92 nM | IC50 [8]: 387 nM | IC50 [14]: 3750 nM | IC50 [9]: 571 nM | IC50 [11]: 17900 nM | IC50 [12]: 4270 nM

ISDYRHYCY [compound 5]
IC50 [3]: 10 nM

NGWFYVEAVIDRQTG [compound 106]
IC50 [13]: 178 nM | IC50 [16]: 845 nM | IC50 [8]: 1200 nM | IC50 [5]: 1460 nM | IC50 [14]: 2800 nM | IC50 [11]: 3670 nM | IC50 [15]: 1860 nM

QVDYYGLYY [compound 2]
IC50 [2]: 251 nM | IC50 [3]: 2.7 nM | IC50 [4]: 160 nM

STDLRDHIDY [compound 3]
IC50 [2]: 758 nM | IC50 [3]: 113 nM

WKHIRLECVLMYKAR [compound 108]
IC50 [10]: 81 nM | IC50 [17]: 134 nM | IC50 [13]: 71 nM | IC50 [16]: 263 nM | IC50 [8]: 412 nM | IC50 [5]: 16400 nM | IC50 [14]: 146 nM | IC50 [9]: 102 nM | IC50 [11]: 11800 nM | IC50 [12]: 476 nM
